Structures can show the parent of a compound that is named as a salt. Where two headings read alike, the source gives them in different places.
Experiments:
[1] = target: T1, Epithelial Sodium Channel (ENaC) (Canis lupus familiaris, UniProt A0A8I3MKE6+A0A8I3Q679+Q95165); test: Sodium channel (ENaC) blocking activity, short circuit current in airway epithelial monolayers in Ussing chambers; assay type: cell-based; details: canine bronchial epithelium; for Fold Amiloride (PSA4022 = 100): relative potency, PSA4022 = 100, using IC50 from PSA4022 in same run
T1 construct: endogenous in cells; host or cells: primary canine bronchial epithelial cells from freshly excised airways, cultured at air-liquid interface and mounted in Ussing chambers
T1 sequence (A0A8I3Q679 1-649): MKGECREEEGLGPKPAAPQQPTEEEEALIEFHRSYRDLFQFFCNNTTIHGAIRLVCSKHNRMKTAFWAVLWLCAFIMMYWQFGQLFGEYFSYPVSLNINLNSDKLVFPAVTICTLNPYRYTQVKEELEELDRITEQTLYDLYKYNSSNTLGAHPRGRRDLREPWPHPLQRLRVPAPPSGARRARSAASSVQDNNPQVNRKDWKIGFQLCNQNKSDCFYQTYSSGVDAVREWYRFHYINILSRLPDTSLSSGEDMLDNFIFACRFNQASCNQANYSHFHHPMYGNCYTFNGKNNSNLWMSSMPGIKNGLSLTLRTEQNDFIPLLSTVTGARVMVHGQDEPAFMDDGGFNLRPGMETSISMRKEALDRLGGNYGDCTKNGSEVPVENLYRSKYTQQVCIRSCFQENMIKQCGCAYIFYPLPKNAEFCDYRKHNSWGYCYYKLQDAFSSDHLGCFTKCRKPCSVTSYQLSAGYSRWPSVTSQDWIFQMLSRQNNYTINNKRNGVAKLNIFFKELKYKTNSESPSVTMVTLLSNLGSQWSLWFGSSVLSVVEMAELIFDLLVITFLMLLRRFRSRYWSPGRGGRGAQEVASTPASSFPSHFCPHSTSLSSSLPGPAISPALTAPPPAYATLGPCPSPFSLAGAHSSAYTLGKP
T1 sequence (Q95165 1-641): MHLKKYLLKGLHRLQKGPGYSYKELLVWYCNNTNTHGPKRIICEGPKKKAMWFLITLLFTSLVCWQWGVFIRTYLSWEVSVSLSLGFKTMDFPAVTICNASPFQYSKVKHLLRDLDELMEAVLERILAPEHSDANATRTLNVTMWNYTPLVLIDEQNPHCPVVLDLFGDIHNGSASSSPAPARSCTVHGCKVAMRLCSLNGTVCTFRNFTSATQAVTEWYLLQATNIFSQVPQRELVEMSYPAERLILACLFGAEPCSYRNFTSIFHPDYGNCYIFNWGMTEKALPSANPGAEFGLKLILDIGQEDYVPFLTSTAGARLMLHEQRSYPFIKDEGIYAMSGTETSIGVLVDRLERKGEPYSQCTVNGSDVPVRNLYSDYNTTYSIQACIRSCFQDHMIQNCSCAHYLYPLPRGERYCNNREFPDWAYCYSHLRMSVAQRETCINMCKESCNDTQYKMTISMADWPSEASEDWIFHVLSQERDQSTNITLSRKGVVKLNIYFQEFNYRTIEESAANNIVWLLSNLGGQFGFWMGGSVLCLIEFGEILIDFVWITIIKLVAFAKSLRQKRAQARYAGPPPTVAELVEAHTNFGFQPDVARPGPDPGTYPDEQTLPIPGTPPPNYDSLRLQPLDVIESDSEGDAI
T1 sequence (A0A8I3MKE6 1-646): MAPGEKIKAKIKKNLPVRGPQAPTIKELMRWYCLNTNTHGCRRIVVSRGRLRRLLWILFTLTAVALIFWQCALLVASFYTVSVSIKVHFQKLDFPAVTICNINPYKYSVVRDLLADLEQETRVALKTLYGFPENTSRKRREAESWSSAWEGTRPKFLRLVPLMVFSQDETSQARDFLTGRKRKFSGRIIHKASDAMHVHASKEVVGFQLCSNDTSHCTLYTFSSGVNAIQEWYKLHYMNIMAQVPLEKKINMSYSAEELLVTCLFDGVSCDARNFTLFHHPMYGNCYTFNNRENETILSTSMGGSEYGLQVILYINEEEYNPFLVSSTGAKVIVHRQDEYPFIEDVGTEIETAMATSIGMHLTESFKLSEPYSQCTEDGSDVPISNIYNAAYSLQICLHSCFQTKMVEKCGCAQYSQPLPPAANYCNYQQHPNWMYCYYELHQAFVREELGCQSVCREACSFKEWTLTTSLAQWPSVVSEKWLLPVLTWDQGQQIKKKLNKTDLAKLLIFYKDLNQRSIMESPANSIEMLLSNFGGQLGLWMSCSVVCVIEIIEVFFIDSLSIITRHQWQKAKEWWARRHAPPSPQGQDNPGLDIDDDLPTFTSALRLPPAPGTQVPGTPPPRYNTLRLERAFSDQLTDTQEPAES
Protocol: One assay used to assess mechanism of action and/or potency of the compounds of the present invention involves the determination of lumenal drug inhibition of airway epithelial sodium currents measured under short circuit current (ISC) using airway epithelial monolayers mounted in Ussing chambers. Cells obtained from freshly excised human, dog or sheep airways are seeded onto porous 0.4 micron Snapwell™ Inserts (CoStar), cultured at air-liquid interface (ALI) conditions in hormonally defined media, and assayed for sodium transport activity (ISC in μA/cm^2) while bathed in Krebs Bicarbonate Ringer (KBR) in Ussing chambers. All test drug additions are to the lumenal bath with half-log dose addition protocols (from 1×10^−11 M to 3×10^−5 M), and the cumulative change in ISC (inhibition) recorded. All drugs are prepared in dimethyl sulfoxide as stock solutions at a concentration of 1×10^−2 M and stored at −20° C. Six preparations are typically run in parallel; one preparation per run incorporates a positive control. All data from the voltage clamps are collected via a computer interface and analyzed off-line.
Dose-effect relationships for all compounds are considered and analyzed by the Prism 3.0 program. EC50 values, maximal effective concentrations are calculated and compared to positive controls.
Utilizing the tests set forth above, Table 3 summaries the ENaC blocking ability of some of the amides of this invention when assayed in canine bronchial epithelium.
Utilizing the tests set forth above, Table 4 summaries the ENaC blocking ability of some of the Esters of this invention when assayed in canine bronchial epithelium.

[2] = Solubility of compounds in sodium chloride solution; assay type: physicochemical; details: saline or isotonic, thermodynamic from solid
Protocol: Compound solubility was measured in water, 0.12 or 0.9% sodium chloride solution at ambient temperature for up to 10 days. Using a UV/Visable Spectrophotometer and applying Beer's Law with the calculated extinction coeffecient of amiloride (18.6 mM, absorbance values at 362 nm taken from D. Mazzo 1986) the free base concentration in solution was calculated at specified time points. All samples were stored for the duration of the experiment in a single/closure system consisting of glass vials with a stopper-top closure. The vials were maintained at ambient temperature, in the dark, and in the upright position. Compound stability was measured using reverse phase high performance liquid chromatography on the final filtered pulled sample (day 10).
Table 2 gives the solubility in saline of selected amide bis methane sulfonic acid salts and compares them to the mono addition methane sulfonic acid salt of PSA 9714.

[3] = Table 3, read-out: IC50 (nM), Epithelial Sodium Channel Blocking Activity of Selected Amides
[4] = 0.12% sodium chloride solution, 0.12% NaCl solution, methanesulfonic acid salts, ambient temperature, read-out: S1 = Solubility in 0.12% NaCl Solution
[5] = Table 4, read-out: IC50 (nM), Epithelial Sodium Channel Blocking Activity of Selected Esters
[6] = 0.9% sodium chloride solution (normal saline), 0.9% NaCl solution (normal saline), methanesulfonic acid salts, ambient temperature, read-out: S2 = Solubility in 0.9% NaCl Solution (normal Saline)

IC50 [1, 3] | Fold Amiloride (PSA4022 = 100) ([1]; Table 3) | solubility [2, 4] | melting point | IC50 [1, 5] | Fold Amiloride (PSA4022 = 100) ([1]; Table 4) | solubility [2, 6] | solubility ([2]; 0.12% sodium chloride solution, 0.12% saline solution, read-out: solubility in 0.12% saline solution) | Compound
4 ± 2 nM | 173 | > 5000 µg/mL | – | – | – | – | – | CN(C)CCCNC(=O)COc1ccc(CCCCNC(=N)NC(=O)c2nc(Cl)c(N)nc2N)cc1 [PSA 24304, 2-(4-{4-[N′-(3,5-diamino-6-chloropyrazine-2-carbonyl)guanidino]-butyl}phenoxy)-N-(3-dimethylaminopropyl)acetamide dimethanesulfonate]
– | – | – | 187 to 190 °C | – | – | – | – | CN(C)CCCNC(=O)COc1ccc(CCCCNC(=N)NC(=O)c2nc(Cl)c(N)nc2N)cc1 (as salt: methanesulfonate) [PSA 24304, 2-(4-{4-[N′-(3,5-diamino-6-chloropyrazine-2-carbonyl)guanidino]-butyl}phenoxy)-N-(3-dimethylaminopropyl)acetamide dimethanesulfonate]
– | – | – | – | 3 nM | 189 | – | – | N=C(NCCCCc1ccc(OCC(=O)OCC2CCNCC2)cc1)NC(=O)c1nc(Cl)c(N)nc1N [PSA 25720, (4-{4-[N′-(3,5-diamino-6-chloropyrazine-2-carbonyl)guanidino]butyl}-phenoxy)acetic acid piperidin-4-yl-methyl ester dihydrochloride]
– | – | – | – | 19 ± 16 nM | 38 | – | – | N=C(NCCCCc1ccc(OCC(=O)OCCN2CCCCC2)cc1)NC(=O)c1nc(Cl)c(N)nc1N [PSA 25453, (4-{4-[N′-(3,5-diamino-6-chloropyrazine-2-carbonyl)guanidino]butyl}-phenoxy)acetic acid 2-piperidin-1-yl-ethyl ester]
– | 146 | > 5000 µg/mL | 105 to 107 °C (dec.) | – | – | – | – | N=C(NCCCCc1ccc(OCC(=O)NCCN)cc1)NC(=O)c1nc(Cl)c(N)nc1N [PSA 23778]
18 nM | 38 | > 5000 µg/mL | 87 to 89 °C | – | – | > 5000 µg/mL | – | N=C(NCCCCc1ccc(OCC(=O)NCCN(CCO)CCO)cc1)NC(=O)c1nc(Cl)c(N)nc1N [PSA 23450]
6 ± 5 nM | 152 | > 5000 µg/mL | 188 to 190 °C | – | – | > 5000 µg/mL | – | CN(C)CCCCNC(=O)COc1ccc(CCCCNC(=N)NC(=O)c2nc(Cl)c(N)nc2N)cc1 [PSA 24305]
14 ± 9 nM | 59 | > 5000 µg/mL | 97 to 99 °C | – | – | – | – | CN(C)CCNC(=O)COc1ccc(CCCCNC(=N)NC(=O)c2nc(Cl)c(N)nc2N)cc1 [PSA 23185a]
– | – | – | – | – | – | – | > 5000 µg/mL | CS(=O)(=O)O.CS(=O)(=O)O.N=C(NCCCCc1ccc(C(=O)N2CCNCC2)cc1)NC(=O)c1nc(Cl)c(N)nc1N [PSA23607, N-(3,5-Diamino-6-chloropyrazine-2-carbonyl)-N′-{4-[4-(piperazine-1-carbonyl)phenyl]butyl}guanidine bis-methanesulfonate]
– | – | – | – | 12 ± 2 nM | 44 | – | – | N=C(NCCCCc1ccc(OCC(=O)OCCN)cc1)NC(=O)c1nc(Cl)c(N)nc1N [PSA 25454, (4-{4-[N′-(3,5-diamino-6-chloropyrazine-2-carbonyl)guanidino]butyl}-phenoxy)acetic acid 2-aminoethyl ester dihydrochloride]
– | 62 | < 100 µg/mL | – | – | – | < 100 µg/mL | – | N=C(NCCCCc1ccc(OCC(N)=O)cc1)NC(=O)c1nc(Cl)c(N)nc1N [PSA 9714, reference compound]
9 ± 1 nM | 98 | > 5000 µg/mL | 72 to 74 °C | – | – | – | – | N=C(NCCCCc1ccc(OCC(=O)N2CCNCC2)cc1)NC(=O)c1nc(Cl)c(N)nc1N [PSA 19913]

Compound | IC50 [1, 3] | Fold Amiloride (PSA4022 = 100) ([1]; Table 3) | solubility [2, 4] | melting point | IC50 [1, 5] | Fold Amiloride (PSA4022 = 100) ([1]; Table 4) | solubility [2, 6] | solubility ([2]; 0.12% sodium chloride solution, 0.12% saline solution, read-out: solubility in 0.12% saline solution)
CC(C)(C)OC(=O)NCCOC(=O)COc1ccc(CCCCNC(N)=NC(=O)c2nc(Cl)c(N)nc2N)cc1 [PSA 25309, (4-{4-[N′-(3,5-Diamino-6-chloropyrazine-2-carbonyl)guanidino]butyl}phenoxy)acetic acid 2-tert-butoxycarbonylaminoethyl ester] | – | – | – | 80 to 82 °C | 4 nM | 119 | – | –
